Series [1] concerns Cerebral artery. In words: Vaso-constriction activity in male wistar rat middle cerebral artery assessed as arterial contraction at 1 uM in presence of losartan. In kind it is functional, tissue-based.
The target of series [2] is T1, Type-1 angiotensin II receptor (Homo sapiens) (UniProt P30556).
T1 sequence (whole entry): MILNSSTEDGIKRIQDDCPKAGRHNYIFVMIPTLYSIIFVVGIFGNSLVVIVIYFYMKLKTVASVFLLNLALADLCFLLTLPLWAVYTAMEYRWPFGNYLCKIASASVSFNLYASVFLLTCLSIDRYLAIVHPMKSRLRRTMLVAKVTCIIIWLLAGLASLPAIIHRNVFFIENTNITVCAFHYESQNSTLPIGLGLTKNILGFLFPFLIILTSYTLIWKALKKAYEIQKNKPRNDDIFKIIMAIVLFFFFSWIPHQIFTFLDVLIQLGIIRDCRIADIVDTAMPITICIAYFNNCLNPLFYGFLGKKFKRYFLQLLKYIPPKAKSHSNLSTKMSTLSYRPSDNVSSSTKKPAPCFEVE
Description: Induction of human NLuc-tagged AT1R (unknown origin) internalization in HEK293 cells co expressing venus-MP using NanoGlo as substrate preincubated for 30 mins followed by substrate addition for 10 mins by BRET assay. The series is classed as functional.

A short description of series [3]: Fluorescence property of compound in HEPES buffer assessed as quantum yield. In kind it is physicochemical.
For series [4], the target named is T1, Type-1 angiotensin II receptor (Homo sapiens). In words: Agonist activity at Flag-tagged AT1R (unknown origin) extracted from HEK293T cell membrane co expressing YPET-ARRB1 assessed as beta-arrestin 1 recruitment using NanoGlo as substrate preincubated for 30 mins followed by substrate addition for 10 mins by BRET assay. The series is classed as functional, cell membranes.

For series [5] the target is unchanged. Description: Agonist activity at Flag-tagged AT1R (unknown origin) extracted from HEK293 cell membrane co expressing YPET-ARRB2 assessed as beta-arrestin 2 recruitment using NanoGlo as substrate preincubated for 30 mins followed by substrate addition for 10 mins by BRET assay. The series is classed as functional, cell membranes.
In series [6] the test system is Cerebral artery. Description: Vaso-constriction activity in male wistar rat middle cerebral artery assessed as arterial contraction at 10 nM. The series is classed as functional, tissue-based.
In series [7] the test system is Cerebral artery. In words: Vaso-constriction activity in male wistar rat middle cerebral artery assessed as arterial contraction at 1 uM. The series is classed as functional, tissue-based.
Another series is filed under the species Homo sapiens. Description: Selectivity index, ratio of Ki for binding affinity to human AT1R extracted from HEK293T cell membrane in presence of [125I][Sar1 Ile8]-angiotensin II by competitive radioligand binding assay to Ki for binding affinity to human AT2R extracted from HEK293T cell membrane in presence of [125I][Sar1 Ile8]-angiotensin II by competitive radioligand binding assay.

For series [8], the target named is T1, Type-1 angiotensin II receptor (Homo sapiens). Description: Agonist activity at AT1R (unknown origin) extracted from HEK293 cell membrane coexpressing NLuc and Venus-miniG assessed as miniGq protein recruitment at 1 uM using NanoGlo as substrate preincubated for 30 mins followed by substrate addition for 10 mins by BRET assay. In kind it is functional, cell membranes. Particulars: time 40.0 min.

Series [9] has the same target. In words: Binding affinity to human GFP-tagged AT1R (unknown origin) extracted from HEK293 cell membrane assessed as colocalization of AT1R in endocytic vesicles at 100 nM incubated for 30 mins by epifluorescence microscopic analysis. In kind it is cell membranes.
For series [10], the target named is T2, Type-2 angiotensin II receptor (Homo sapiens, UniProt P50052).
T2 sequence (P50052 whole entry): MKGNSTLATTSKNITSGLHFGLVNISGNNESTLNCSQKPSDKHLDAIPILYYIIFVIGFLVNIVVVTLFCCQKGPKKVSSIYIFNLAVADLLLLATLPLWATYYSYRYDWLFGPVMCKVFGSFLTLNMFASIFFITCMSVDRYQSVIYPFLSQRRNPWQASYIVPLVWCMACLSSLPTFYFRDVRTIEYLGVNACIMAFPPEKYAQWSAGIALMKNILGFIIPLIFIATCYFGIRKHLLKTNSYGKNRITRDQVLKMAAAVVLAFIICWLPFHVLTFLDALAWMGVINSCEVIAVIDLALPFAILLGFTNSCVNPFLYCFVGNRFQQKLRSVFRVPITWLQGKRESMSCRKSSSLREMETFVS
In words: Binding affinity to human AT2R extracted from HEK293T cell membrane assessed as inhibition constant in presence of [125I][Sar1 Ile8]-angiotensin II by competitive radioligand binding assay. In kind it is cell membranes.

The target in series [11] is T3, Type-2 angiotensin II receptor (Homo sapiens) (UniProt P50052).
T3 sequence (whole entry): T2 sequence (P50052 whole entry)
In words: Binding affinity to human GFP-tagged AT2R extracted from HEK293 cell membrane assessed as colocalization of AT2R in plasma membrane at 100 nM incubated for 30 mins by epifluorescence microscopic analysis. In kind it is cell membranes.

Series [12] has as its target T4, Type-1 angiotensin II receptor (Homo sapiens, UniProt P30556).
T4 sequence (P30556 whole entry): T1 sequence (whole entry)
In words: Binding affinity to human AT1R extracted from HEK293T cell membrane assessed as inhibition constant in presence of [125I][Sar1 Ile8]-angiotensin II by competitive radioligand binding assay. In kind it is cell membranes.

Series [13] deals with Cerebral artery. In words: Vaso-constriction activity in male wistar rat middle cerebral artery assessed as arterial contraction. In kind it is functional, tissue-based.
Series [14] deals with T3, Type-2 angiotensin II receptor (Homo sapiens). Description: Binding affinity to human GFP-tagged AT2R extracted from HEK293 cell membrane assessed as colocalization of AT2R in plasma membrane at 30 nM incubated for 30 mins by epifluorescence microscopic analysis. Particulars: filed as agonist. The series is classed as cell membranes.
Series [15] deals with T1, Type-1 angiotensin II receptor (Homo sapiens). Description: Agonist activity at Flag-tagged AT1R (unknown origin) extracted from HEK293 cell membrane assessed as increase in intracellular calcium at >100 nM incubated for 30 mins by microplate reader analysis. The series is classed as functional, cell membranes. Particulars: filed as agonist.
Series [16] addresses T3, Type-2 angiotensin II receptor (Homo sapiens). In words: Binding affinity to GFP-tagged AT2R (unknown origin) extracted from HEK293 cell membrane assessed as increase in median red fluorescence intensity incubated for 15 mins by flow cytometric analysis. In kind it is cell membranes. The note with it: filed as agonist.
For series [17], the target named is T1, Type-1 angiotensin II receptor (Homo sapiens). In words: Binding affinity to human GFP-tagged AT1R (unknown origin) extracted from HEK293 cell membrane assessed as colocalization of AT1R in endocytic vesicles at 50 nM incubated for 30 mins by epifluorescence microscopic analysis. In kind it is cell membranes. The note with it: filed as agonist.
The target is the same in series [18]. In words: Agonist activity at Flag-tagged AT1R (unknown origin) extracted from HEK293 cell membrane co expressing YPET-ARRB1 assessed as beta-arrestin 1 recruitment at 1 uM by measuring maximum efficacy using NanoGlo as substrate preincubated for 30 mins followed by substrate addition for 10 mins by BRET assay. The series is classed as functional, cell membranes. Particulars: filed as agonist.

The target of series [19] is T3, Type-2 angiotensin II receptor (Homo sapiens). Description: Binding affinity to human GFP-tagged AT2R extracted from HEK293 cell membrane assessed as colocalization of AT2R in plasma membrane at 50 nM incubated for 30 mins by epifluorescence microscopic analysis. Particulars: filed as agonist. The series is classed as cell membranes.
The target in series [20] is T1, Type-1 angiotensin II receptor (Homo sapiens). In words: Agonist activity at Flag-tagged AT1R (unknown origin) extracted from HEK293 cell membrane co expressing YPET-ARRB2 assessed as beta-arrestin 2 recruitment at 1 uM by measuring maximum efficacy using NanoGlo as substrate preincubated for 30 mins followed by substrate addition for 10 mins by BRET assay. In kind it is functional, cell membranes. Particulars: filed as agonist.

Calls of active or inactive are those of the source. No cut-off for these calls is given here. Square brackets hold non-standard residues; d marks the D form. Peptide text beside a SMILES is read from it. * marks the point of attachment. ξ: configuration not given here. X1 = C[N+]1=C(/C=C/C=C2\N(CCCCCC(=O)*)c3ccccc3C2(C)C)C(C)(C)c2ccccc21; PEG2 = NCCOCCOCCC(=O)O; ξD = NC(CC(=O)O)C(=O)O

For the compound `CC[C@H](C)[C@H](NC(=O)[C@@H](NC(=O)C(CC(=O)O)NC(=O)[C@@H]1CCCN1C(=O)[C@H](Cc1c[nH]cn1)NC(=O)[C@H](Cc1ccccc1)NC(=O)[C@H](Cc1ccc(O)cc1)NC(=O)CCOCCOCCNC(=O)CCCCCN1/C(=C\C=C\C2=[N+](C)c3ccccc3C2(C)C)C(C)(C)c2ccccc21)C(C)C)C(=O)N[C@@H](CCCNC(=N)N)C(=O)O` (stereo partly specified) ({X1-PEG2}-YFHP[ξD]VIR-OH), the outcome in the series with Cerebral artery [1] was Active. Moreover, the result in series [2], in series [4] (HEK293) and in [5] was inactive. Further, the Activity in series [3] came to 0.064.

As to `CC[C@H](C)[C@H](NC(=O)[C@H](Cc1ccc(O)cc1)NC(=O)[C@@H](NC(=O)[C@H](CCCNC(=N)N)NC(=O)[C@H](CC(=O)O)NC(=O)CCCCCN1/C(=C\C=C\C2=[N+](C)c3ccccc3C2(C)C)C(C)(C)c2ccccc21)C(C)C)C(=O)N[C@@H](Cc1c[nH]cn1)C(=O)N1CCC[C@H]1C(=O)N[C@@H](Cc1ccccc1)C(=O)O`, the outcome in the series on Cerebral artery [6] and in the series on Cerebral artery [7] was Active. Further, the Activity in [3] is given as 0.08.

Take `CC[C@H](C)[C@H](NC(=O)[C@H](Cc1ccc(O)cc1)NC(=O)[C@@H](NC(=O)[C@H](CCCNC(=N)N)NC(=O)CN(C)C(=O)CCOCCOCCNC(=O)CCCCCN1/C(=C\C=C\C2=[N+](C)c3ccccc3C2(C)C)C(C)(C)c2ccccc21)C(C)C)C(=O)N[C@@H](Cc1c[nH]cn1)C(=O)N1CCC[C@H]1C(=O)N[C@@H](C)C(=O)O`: the Ratio Ki in the series filed under Homo sapiens is greater than 500. Also, the result (in series [8] (filed as agonist); in the series on Cerebral artery [7]) was Active. Further, the result in [9] and in [11] was inactive. In addition, the Ki in series [10] (read-out: Ki) was 22.6 nM; in series [10] (read-out: pKi (converted)), 16.2 nM; in [12] (read-out: Ki) it was greater than 10000 nM. Besides, the Activity in series [3] was 0.058. Also, the pKi in [12] (hek293t) is on record as less than 5.

Take `CC[C@H](C)[C@H](NC(=O)[C@@H](NC(=O)[C@H](CC(=O)O)NC(=O)[C@@H]1CCCN1C(=O)[C@H](Cc1c[nH]cn1)NC(=O)[C@H](Cc1ccccc1)NC(=O)[C@H](Cc1ccc(O)cc1)NC(=O)CCCCCN1/C(=C\C=C\C2=[N+](C)c3ccccc3C2(C)C)C(C)(C)c2ccccc21)C(C)C)C(=O)N[C@@H](CCCNC(=N)N)C(=O)O` (X1-YFHPDVIR-OH): in the series with Cerebral artery [1], the outcome was Active. Besides, the result in series [2], in [4] (HEK293) and in series [5] was inactive. Moreover, in series [3], the Activity is given as 0.101.

Turning to H-YFHPDVIR-OH, the result (in the series with Cerebral artery [13]; in [2]; in [4] (HEK293); in series [5]) was inactive.

As to `CC[C@H](C)[C@H](NC(=O)[C@H](Cc1ccc(O)cc1)NC(=O)[C@@H](NC(=O)[C@H](CCCNC(=N)N)NC(=O)[C@H](CC(=O)O)NC(=O)CCOCCOCCNC(=O)CCCCCN1/C(=C\C=C\C2=[N+](C)c3ccccc3C2(C)C)C(C)(C)c2ccccc21)C(C)C)C(=O)N[C@@H](Cc1c[nH]cn1)C(=O)N1CCC[C@H]1C(=O)N[C@@H](Cc1ccccc1)C(=O)O`, the result in the series with Cerebral artery [6] and with Cerebral artery [7] was Active. The Activity in series [3] was 0.068.

Consider `CC[C@H](C)[C@H](NC(=O)[C@H](Cc1ccc(O)cc1)NC(=O)[C@@H](NC(=O)[C@H](CCCNC(=N)N)NC(=O)CN(C)C(=O)CCCCCN1/C(=C\C=C\C2=[N+](C)c3ccccc3C2(C)C)C(C)(C)c2ccccc21)C(C)C)C(=O)N[C@@H](Cc1c[nH]cn1)C(=O)N1CCC[C@H]1C(=O)N[C@@H](C)C(=O)O`, for which the Ratio Ki in the series listed under Homo sapiens turned out to be 1280. Besides, the result (in [8] (filed as agonist); in series [14]; in series [15]; in the series with Cerebral artery [7]; in series [16]) was Active. In addition, the Activity entry is given as “Active; Scarce Colocalization Of Compound Was Observed” in [9] (filed as agonist) and 0.076 in [3]. Also, the Ki in series [10] (read-out: Ki) was 4.23 nM; in [10] (read-out: pKi (converted)), 3.31 nM; in [12] (read-out: Ki), 5430 nM; in [12] (read-out: pKi (converted)) it was 5130 nM.

Turning to `CC[C@H](C)[C@H](NC(=O)[C@H](Cc1ccc(O)cc1)NC(=O)[C@@H](NC(=O)[C@H](CCCN=C(N)N)NC(=O)CNC)C(C)C)C(=O)N[C@@H](Cc1c[nH]cn1)C(=O)N1CCC[C@H]1C(=O)N[C@@H](C)C(=O)O`, the outcome (in the series on Cerebral artery [13]; in series [8]) was inactive. Also, the outcome in series [2] (filed as agonist), in series [17] and in series [19] was Active. For the same compound, the Emax in [18] turned out to be 0.031 a.u; in [20], 0.043 a.u. In addition, the Activity result was “Dose-dependent-effect” in series [4] (HEK293, filed as agonist) and “Dose-dependent-effect” in series [5] (filed as agonist).

(Values after ChEMBL document CHEMBL6078647 (J Med Chem, 2024).)
